Experimental data from EP0350012A2, “Antiviral composition” (MEIJI SEIKA KAISHA LTD., priority 1988, dated 1990).
Converted amounts (≈) assume the structure as drawn. Like-named read-outs stand apart in the source and are kept apart here. One block for each compound: values may come before it.

Legend:
[1] = tested on: Molt-4 cells and Molt-4/HIV cells; experiment: cells; type: cell-based; conditions: for 50% Inhibitory Concentration (IC₅₀): giant cell formation inhibition, as indicated in Example 4
Experimental: After a test drug was dissolved in methanol medium for tissue culture was added to the solution to make a definite concentration. The concentration of methanol was finally adjusted to less than 2 %. HIV persistent injection Molt-4 cells (Molt-4/HIV cells) were precultured for 24 hours in the presence of the compound. The precultured Molt-4/HIV cells were mixed with HIV-non-infected Molt-4 cells, whereby the compound was prepared to have the same concentration as that of the preculture. The mixture was then cultured. Giant cell formation was compared between chemically intact control cells and the group to which the compound has been added 5 and 20 hours after mixing the culture to evaluate the effect of the chemical. The evaluation was made based on the method of Yamamoto et al. (Virology, 164, 542 - 546, 1988). The evaluation effect is shown in Table 1 in terms of fusion index.

[2] = tested on: mice; experiment: Acute toxicity test, oral administration to mice; type: in vivo; conditions: 4g/kg administered orally, 3 mice in each group
Text: The compounds of the present invention have low toxicity.

[3] = Homo sapiens, MOLT-4, read-out: 50% Inhibitory Concentration (IC₅₀)
[4] = 12.5 µg/ml, mixed culture 5 hours
[5] = 12.5 µg/ml, mixed culture 20 hours
[6] = 25 µg/ml, mixed culture 5 hours
[7] = 25 µg/ml, mixed culture 20 hours
[8] = 50 µg/ml, mixed culture 5 hours
[9] = 50 µg/ml, mixed culture 20 hours
[10] = Homo sapiens, MOLT-4, 5 h, read-out: Giant cell formation inhibitory rate (%)
[11] = Homo sapiens, MOLT-4, 20 h, read-out: Giant cell formation inhibitory rate (%)
[12] = Homo sapiens, MOLT-4, read-out: 50 % of inhibitory concentration (IC₅₀ value) of the giant cell formation inhibition
[13] = 100 µg/ml, mixed culture 5 hours
[14] = 100 µg/ml, mixed culture 20 hours
[15] = 200 µg/ml, mixed culture 5 hours
[16] = 200 µg/ml, mixed culture 20 hours

SMILES: OC[C@@H]1[C@@H](O)[C@H](O)[C@@H](O)CN1CC=C(c1ccc(F)cc1)c1ccc(F)cc1 [Example 9, N-[3,3-Di(4-fluorophenyl)-2-propenyl]-1-deoxynojirimycin]
50% Inhibitory Concentration (IC₅₀) [1]: >100 µg/mL

SMILES: OC[C@@H]1[C@@H](O)[C@H](O)[C@@H](O)CN1CCC=Cc1ccc(Cl)cc1 [Example 8, N-[4-(4-Chlorophenyl)-3-butenyl]-1-deoxynojirimycin]
50% Inhibitory Concentration (IC₅₀) [1]: 70 µg/mL

SMILES: OC[C@@H]1[C@@H](O)[C@H](O)[C@@H](O)CN1CCOc1ccccc1 [Control, N-(2-Phenoxyethyl)-1-deoxynojirimycin, reference compound]
IC50 [1, 3]: 20 to 40 µg/mL (≈ 70.6 to 141 µM)

SMILES: OC[C@@H]1[C@@H](O)[C@H](O)[C@@H](O)CN1CC=Cc1ccccc1Cl [Example 7, N-[3-(2-Chlorophenyl)-2-propenyl]-1-deoxynojirimycin]
50% Inhibitory Concentration (IC₅₀) [1]: 60 µg/mL

SMILES: OC[C@@H]1[C@@H](O)[C@H](O)[C@@H](O)CN1CCC(c1ccccc1)c1ccccc1 [Example 3, N-(3,3-diphenyl-propyl)-1-deoxynojirimycin]
Fusion index ([1]; 3.13 µg/ml, mixed culture 5 hours): 0.26
Fusion index ([1]; 3.13 µg/ml, mixed culture 20 hours): 1.50
Fusion index ([1]; 6.25 µg/ml, mixed culture 5 hours): 0.54
Fusion index ([1]; 6.25 µg/ml, mixed culture 20 hours): 2.16
Fusion index [1, 4]: 0.26
Fusion index [1, 5]: 1.37
Fusion index [1, 6]: 0.50
Fusion index [1, 7]: 0.89
Fusion index [1, 8]: 0.32
Fusion index [1, 9]: 0.62
inhibition at 3.13 µg/mL [1, 10]: 51.9%
inhibition at 6.25 µg/mL [1, 10]: 0%
inhibition at 12.5 µg/mL [1, 10]: 51.9%
inhibition at 25 µg/mL [1, 10]: 7.4%
inhibition at 50 µg/mL [1, 10]: 40.7%
inhibition at 3.13 µg/mL [1, 11]: 21.1%
inhibition at 6.25 µg/mL [1, 11]: 0%
inhibition at 12.5 µg/mL [1, 11]: 27.9%
inhibition at 25 µg/mL [1, 11]: 53.2%
inhibition at 50 µg/mL [1, 11]: 67.4%

SMILES: OC[C@@H]1[C@@H](O)[C@H](O)[C@@H](O)CN1CC=Cc1cccc(F)c1 [Example 4, N-[3-(3-fluorophenyl) 2-propenyl]-1-deoxynojirimycin]
Fusion index ([1]; 2.5 µg/ml, mixed culture 20 hours): 1.38
Fusion index ([1]; 5 µg/ml, mixed culture 20 hours): 1.04
Fusion index ([1]; 10 µg/ml, mixed culture 20 hours): 0.52
Fusion index ([1]; 20 µg/ml, mixed culture 20 hours): 0.32
Fusion index ([1]; 40 µg/ml, mixed culture 20 hours): 0.01
inhibition at 2.5 µg/mL [1, 11]: 28%
inhibition at 5 µg/mL [1, 11]: 46%
inhibition at 10 µg/mL [1, 11]: 73%
inhibition at 20 µg/mL [1, 11]: 83%
inhibition at 40 µg/mL [1, 11]: 99%
IC50 [1, 12]: 5 to 10 µg/mL (≈ 16.8 to 33.6 µM)

SMILES: OC[C@@H]1[C@@H](O)[C@H](O)[C@@H](O)CN1CCCCc1ccccc1 [Example 5, N-(4-Phenylbutyl)-1-deoxynojirimycin]
IC50 [1, 3]: 5 to 10 µg/mL (≈ 16.9 to 33.9 µM)

SMILES: OC[C@@H]1[C@@H](O)[C@H](O)[C@@H](O)CN1CC=Cc1cccc(Cl)c1 [Example 6, N-[3-(3-Chlorophenyl)-2-propenyl]-1-deoxynojirimycin]
50% Inhibitory Concentration (IC₅₀) [1]: 50 µg/mL

SMILES: OC[C@@H]1[C@@H](O)[C@H](O)[C@@H](O)CN1CCCc1ccccc1 [Example 1, N-(3-phenylpropyl)-1-deoxynojirimycin]
Fusion index [1, 4]: 0.11
Fusion index [1, 5]: 0.34
Fusion index [1, 6]: -0.07
Fusion index [1, 7]: 0.18
Fusion index [1, 8]: 0.19
Fusion index [1, 9]: 0.13
Fusion index [1, 13]: 0
Fusion index [1, 14]: 0.05
Fusion index [1, 15]: 0.23
Fusion index [1, 16]: 0.18
effect of inhibiting the formation of giant cells ([1]; 20 hours after mixing the culture): about 90%
inhibition at 12.5 µg/mL [1, 10]: 79.6%
inhibition at 25 µg/mL [1, 10]: 100%
inhibition at 50 µg/mL [1, 10]: 64.8%
inhibition at 100 µg/mL [1, 10]: 100%
inhibition at 200 µg/mL [1, 10]: 57.4%
inhibition at 12.5 µg/mL [1, 11]: 82.1%
inhibition at 25 µg/mL [1, 11]: 90.5%
inhibition at 50 µg/mL [1, 11]: 93.2%
inhibition at 100 µg/mL [1, 11]: 97.4%
inhibition at 200 µg/mL [1, 11]: 90.5%
IC50 [1, 12]: 5 to 10 µg/mL (≈ 17.8 to 35.5 µM)
microscopic observation of giant cell formation ([1]; compared to the control cells): clearly inhibited the formation of giant cells

SMILES: OC[C@@H]1[C@@H](O)[C@H](O)[C@@H](O)CN1CC=Cc1ccc(F)cc1 [Example 12, N-[3(4-Fuluorophenyl)-2-propenyl]-1-deoxynojirimycin]
50% Inhibitory Concentration (IC₅₀) [1]: 10 µg/mL

SMILES: OC[C@@H]1[C@@H](O)[C@H](O)[C@@H](O)CN1CC=Cc1ccccc1 [Example 2, N-(3-phenyl-2-propenyl)-1-deoxynojirimycin]
Fusion index [1, 4]: 0.14
Fusion index [1, 5]: -0.03
Fusion index [1, 6]: 0.17
Fusion index [1, 7]: -0.08
Fusion index [1, 8]: 0.06
Fusion index [1, 9]: -0.07
Fusion index [1, 13]: -0.10
Fusion index [1, 14]: 0.10
Fusion index [1, 15]: -0.08
Fusion index [1, 16]: 0.10
inhibition at 12.5 µg/mL [1, 10]: 74.1%
inhibition at 25 µg/mL [1, 10]: 68.5%
inhibition at 50 µg/mL [1, 10]: 88.9%
inhibition at 100 µg/mL [1, 10]: 100%
inhibition at 200 µg/mL [1, 10]: 100%
inhibition at 12.5 µg/mL [1, 11]: 100%
inhibition at 25 µg/mL [1, 11]: 100%
inhibition at 50 µg/mL [1, 11]: 100%
inhibition at 100 µg/mL [1, 11]: 94.7%
inhibition at 200 µg/mL [1, 11]: 94.7%
IC50 [1, 12]: 2.5 to 5 µg/mL (≈ 8.95 to 17.9 µM)
giant cell formation inhibiting effect ([1]; Table 2): 90-100%
survival in the acute toxicity test [2]: all of the tested mice survived

The next lines start with the values.

IC50 [1, 3]: 5 to 10 µg/mL (≈ 18.3 to 36.6 µM)
SMILES: OC[C@@H]1[C@@H](O)[C@H](O)[C@@H](O)CN1CCCC(F)(F)F [Example 15, N-(4,4,4-Trifluorobutyl)-1-deoxynojirimycin]

IC50 [1, 3]: 5 to 10 µg/mL (≈ 16.9 to 33.9 µM)
SMILES: Cc1ccc(CCCN2C[C@H](O)[C@@H](O)[C@H](O)[C@H]2CO)cc1 [Example 10, N-[3-(4-Methylphenyl)-propyl]-1-deoxynojirimycin]

IC50 [1, 3]: 2.5 to 5 µg/mL (≈ 8.41 to 16.8 µM)
SMILES: OC[C@@H]1[C@@H](O)[C@H](O)[C@@H](O)CN1CC=Cc1ccccc1F [Example 13, N-[3-(2-Fluorophenyl)-2-propenyl]-1-deoxynojirimycin]

IC50 [1, 3]: 2.5 to 5 µg/mL (≈ 8.7 to 17.4 µM)
SMILES: OC[C@@H]1[C@@H](O)[C@H](O)[C@@H](O)CN1CCCCC(F)(F)F [Example 16, N-(5,5,5-Trifluoropentyl)-1-deoxynojirimycin]

IC50 [1, 3]: 5 to 10 µg/mL (≈ 16.7 to 33.4 µM)
SMILES: OC[C@@H]1[C@@H](O)[C@H](O)[C@@H](O)CN1CCCc1ccc(F)cc1 [Example 11, N-[3-(4-Fluorophenyl)-propyl]-1-deoxynojirimycin]

IC50 [1, 3]: 5 to 10 µg/mL (≈ 16.1 to 32.1 µM)
SMILES: OC[C@@H]1[C@@H](O)[C@H](O)[C@@H](O)CN1CCC=Cc1ccccc1F [Example 14, N-[4-(2-Fluorophenyl)-3-butenyl]-1-deoxynojirimycin]
